In patent US12441768B2, “Compositions and methods for treating endometriosis” (EndoMet Biosciences, Inc., priority 2018, dated 2025):
Where a SMILES comes first, the peptide text is derived from it.

Target: T1, β-catenin (Homo sapiens, UniProt P35222)
T1 sequence (P35222 1-781): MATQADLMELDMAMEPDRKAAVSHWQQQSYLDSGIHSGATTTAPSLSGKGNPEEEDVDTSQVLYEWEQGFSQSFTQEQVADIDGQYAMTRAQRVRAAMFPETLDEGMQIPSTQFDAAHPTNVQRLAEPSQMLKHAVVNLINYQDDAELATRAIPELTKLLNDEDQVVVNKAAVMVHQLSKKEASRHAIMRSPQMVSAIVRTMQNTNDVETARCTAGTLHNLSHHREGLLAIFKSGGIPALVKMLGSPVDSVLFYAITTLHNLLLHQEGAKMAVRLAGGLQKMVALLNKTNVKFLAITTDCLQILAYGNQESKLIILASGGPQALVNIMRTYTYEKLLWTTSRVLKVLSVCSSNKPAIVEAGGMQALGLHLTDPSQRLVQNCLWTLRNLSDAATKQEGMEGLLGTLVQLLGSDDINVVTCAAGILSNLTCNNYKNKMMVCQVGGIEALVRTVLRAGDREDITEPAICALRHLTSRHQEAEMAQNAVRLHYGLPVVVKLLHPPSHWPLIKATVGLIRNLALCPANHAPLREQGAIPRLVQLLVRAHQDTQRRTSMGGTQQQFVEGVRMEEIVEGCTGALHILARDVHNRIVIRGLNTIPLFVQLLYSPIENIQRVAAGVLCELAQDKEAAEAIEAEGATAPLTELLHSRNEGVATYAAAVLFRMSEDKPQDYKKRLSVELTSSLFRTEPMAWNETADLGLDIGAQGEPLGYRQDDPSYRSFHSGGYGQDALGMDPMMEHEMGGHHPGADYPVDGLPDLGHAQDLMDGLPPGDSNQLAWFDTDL
Experiment: KD50 measurement using competitive fluorescence polarization (FP) with labelled TCF4
Type: binding
Conditions: fluorescence polarization, β-catenin; for Kd: read-out: β-Cat FP KD
In short: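 Labelled TCF4 (5 nM) mixed with 100 nM β-catenin at room temperature; inhibitor added as serial dilutions from 10 nM to 30 uM. Polarization read at excitation 470 nm/emission 520 nm; binding displacement lowers polarization. Three independent runs.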

SMILES	β-Cat FP Hill slope	Kd
CC[C@H](C)[C@@H]1NC(=O)[C@@H](NC(=O)[C@H](CCC(N)=O)NC(=O)[C@@H]2CCCN2C(=O)[C@H](Cc2c[nH]c3ccccc23)NC(=O)[C@H](CCCNC(=N)N)NC(=O)[C@H](CCCNC(=N)N)NC(C)=O)CCCCNC(=O)CC[C@@H](C(=O)N[C@@H](Cc2c[nH]cn2)C(=O)N[C@H](C(=O)N[C@@H](CCCNC(=N)N)C(=O)N[C@@H](CCCNC(=N)N)C(=O)N[C@H](C(=O)N[C@@H](Cc2c[nH]c3ccccc23)C(=O)N[C@@H](CCCNC(=N)N)C(N)=O)C(C)C)C(C)C)NC(=O)[C@H](CC(=O)O)NC(=O)[C@H](CC(C)C)NC1=O [compound 429] (HELM PEPTIDE1{[ac].R.R.W.P.Q.K.I.L.D.E.H.V.R.R.V.W.R.[am]}$PEPTIDE1,PEPTIDE1,7:R3-11:R3$$$V2.0)	0.7	0.4 to 1 µM
CC[C@H](C)[C@@H]1NC(=O)[C@@H](NC(=O)[C@H](CCC(N)=O)NC(=O)[C@H](C)N(C)C(C)=O)CCCCNC(=O)CC[C@@H](C(=O)N[C@@H](Cc2c[nH]cn2)C(=O)N[C@H](C(=O)N[C@@H](CCC(N)=O)C(=O)N[C@@H](CCCNC(=N)N)C(=O)N[C@H](C(=O)N[C@@H](Cc2c[nH]c3ccccc23)C(=O)NCC(N)=O)C(C)C)C2CCCCC2)NC(=O)[C@H](CC(N)=O)NC(=O)[C@H](CC(C)C)NC1=O [compound 433] (HELM PEPTIDE1{[ac].[meA].Q.K.I.L.N.E.H.[O=C([C@@H](N[*:1])C1CCCCC1)[*:2]].Q.R.V.W.G.[am]}$PEPTIDE1,PEPTIDE1,4:R3-8:R3$$$V2.0)	0.7	0.4 to 1 µM
CCCCCCCCCCCC(=O)N[C@@H](Cc1c[nH]c2ccccc12)C(=O)N(C)[C@@H](C)C(=O)N[C@@H](CCC(N)=O)C(=O)N[C@H]1CCCCNC(=O)CC[C@@H](C(=O)N[C@@H](Cc2c[nH]cn2)C(=O)N[C@H](C(=O)N[C@@H](CCC(N)=O)C(=O)N[C@@H](CCCNC(=N)N)C(=O)N[C@H](C(=O)N[C@@H](Cc2c[nH]c3ccccc23)C(=O)NCC(N)=O)C(C)C)C2CCCCC2)NC(=O)[C@H](CC(N)=O)NC(=O)[C@H](CC(C)C)NC(=O)[C@H]([C@@H](C)CC)NC1=O [compound 436] (HELM PEPTIDE1{[CCCCCCCCCCCC(=O)[*:2]].W.[meA].Q.K.I.L.N.E.H.[O=C([C@@H](N[*:1])C1CCCCC1)[*:2]].Q.R.V.W.G.[am]}$PEPTIDE1,PEPTIDE1,5:R3-9:R3$$$V2.0)	–	> 30 µM
CC[C@H](C)[C@H](NC(=O)[C@H](CO)NC(=O)[C@H](CCC(N)=O)NC(=O)[C@H](C)N(C)C(=O)[C@H](Cc1c[nH]c2ccccc12)NC(C)=O)C(=O)N[C@@H](CC(C)C)C(=O)N[C@@H](CC(=O)O)C(=O)N[C@H]1CCC(=O)NCCCC[C@@H](C(=O)N[C@H](C(=O)N[C@@H](Cc2c[nH]c3ccccc23)C(=O)NCC(N)=O)C(C)C)NC(=O)[C@H](CCC(N)=O)NC(=O)[C@H](C(C)C)NC(=O)[C@H](Cc2c[nH]cn2)NC1=O [compound 437] (HELM PEPTIDE1{[ac].W.[meA].Q.S.I.L.D.E.H.V.Q.K.V.W.G.[am]}$PEPTIDE1,PEPTIDE1,9:R3-13:R3$$$V2.0)	0.7	< 0.4 µM
CCCCCCCCC(=O)N[C@@H](Cc1c[nH]c2ccccc12)C(=O)N(C)[C@@H](C)C(=O)N[C@@H](CCC(N)=O)C(=O)N[C@@H](CO)C(=O)N[C@H](C(=O)N[C@@H](CC(C)C)C(=O)N[C@@H](CC(=O)O)C(=O)N[C@H]1CCC(=O)NCCCC[C@@H](C(=O)N[C@H](C(=O)N[C@@H](Cc2c[nH]c3ccccc23)C(=O)NCC(N)=O)C(C)C)NC(=O)[C@H](CCC(N)=O)NC(=O)[C@H](C(C)C)NC(=O)[C@H](Cc2c[nH]cn2)NC1=O)[C@@H](C)CC [compound 438] (HELM PEPTIDE1{[CCCCCCCCC(=O)[*:2]].W.[meA].Q.S.I.L.D.E.H.V.Q.K.V.W.G.[am]}$PEPTIDE1,PEPTIDE1,9:R3-13:R3$$$V2.0)	–	< 0.4 µM
CCCCCCCCCCCC(=O)N[C@@H](Cc1c[nH]c2ccccc12)C(=O)N(C)[C@@H](C)C(=O)N[C@@H](CCC(N)=O)C(=O)N[C@@H](CO)C(=O)N[C@H](C(=O)N[C@@H](CC(C)C)C(=O)N[C@@H](CC(=O)O)C(=O)N[C@H]1CCC(=O)NCCCC[C@@H](C(=O)N[C@H](C(=O)N[C@@H](Cc2c[nH]c3ccccc23)C(=O)NCC(N)=O)C(C)C)NC(=O)[C@H](CCC(N)=O)NC(=O)[C@H](C(C)C)NC(=O)[C@H](Cc2c[nH]cn2)NC1=O)[C@@H](C)CC [compound 439] (HELM PEPTIDE1{[CCCCCCCCCCCC(=O)[*:2]].W.[meA].Q.S.I.L.D.E.H.V.Q.K.V.W.G.[am]}$PEPTIDE1,PEPTIDE1,9:R3-13:R3$$$V2.0)	–	< 0.4 µM
CCCCCCCCCCCC(=O)N[C@@H](CCC(=O)O)C(=O)N[C@@H](CC(=O)O)C(=O)N1CCC[C@H]1C(=O)N[C@@H](CCC(N)=O)C(=O)N[C@H]1CCCCNC(=O)CC[C@@H](C(=O)N[C@@H](Cc2c[nH]cn2)C(=O)N[C@@H](CC(C)C)C(=O)N[C@@H](CCC(N)=O)C(=O)N[C@@H](CCCNC(=N)N)C(=O)N[C@H](C(=O)N[C@@H](CC(C)C)C(=O)N[C@@H](CCCCN)C(N)=O)C(C)C)NC(=O)[C@H](CC(=O)O)NC(=O)[C@H](CC(C)C)NC(=O)[C@H]([C@@H](C)CC)NC1=O [compound 444] (HELM PEPTIDE1{[CCCCCCCCCCCC(=O)[*:2]].E.D.P.Q.K.I.L.D.E.H.L.Q.R.V.L.K.[am]}$PEPTIDE1,PEPTIDE1,6:R3-10:R3$$$V2.0)	–	< 0.4 µM
CC[C@H](C)[C@@H]1NC(=O)[C@@H](NC(=O)[C@H](CCC(N)=O)NC(=O)[C@H](C)N(C)C(=O)[C@H](Cc2c[nH]c3ccccc23)NC(C)=O)CCCCNC(=O)CC[C@@H](C(=O)N[C@@H](Cc2c[nH]cn2)C(=O)N[C@H](C(=O)N[C@@H](CCC(N)=O)C(=O)N[C@@H](CCCNC(=N)N)C(=O)N[C@H](C(=O)N[C@@H](Cc2c[nH]c3ccccc23)C(N)=O)C(C)C)C2CCCCC2)NC(=O)[C@H](CC(=O)O)NC(=O)[C@H](CC(C)C)NC1=O [compound 446] (HELM PEPTIDE1{[ac].W.[meA].Q.K.I.L.D.E.H.[O=C([C@@H](N[*:1])C1CCCCC1)[*:2]].Q.R.V.W.[am]}$PEPTIDE1,PEPTIDE1,5:R3-9:R3$$$V2.0)	0.7	< 0.4 µM

Next, values leading:

β-Cat FP Hill slope	Kd	SMILES
0.91	< 0.4 µM	CC[C@H](C)[C@@H]1NC(=O)[C@@H](NC(=O)[C@H](CCC(N)=O)NC(=O)[C@H](C)N(C)C(=O)[C@H](Cc2c[nH]c3ccccc23)NC(C)=O)CCC(=O)NCCCC[C@@H](C(=O)N[C@@H](Cc2c[nH]cn2)C(=O)N[C@H](C(=O)N[C@@H](CCC(N)=O)C(=O)N[C@@H](CCCNC(=N)N)C(=O)N[C@H](C(=O)N[C@@H](Cc2c[nH]c3ccccc23)C(=O)NCC(N)=O)C(C)C)C2CCCCC2)NC(=O)[C@H](CC(=O)O)NC(=O)[C@H](CC(C)C)NC1=O [compound 426] (HELM PEPTIDE1{[ac].W.[meA].Q.E.I.L.D.K.H.[O=C([C@@H](N[*:1])C1CCCCC1)[*:2]].Q.R.V.W.G.[am]}$PEPTIDE1,PEPTIDE1,5:R3-9:R3$$$V2.0)
–	< 0.4 µM	CCCCCCCCC(=O)N[C@@H](Cc1c[nH]c2ccccc12)C(=O)N(C)[C@@H](C)C(=O)N[C@@H](CCC(N)=O)C(=O)N[C@H]1CCC(=O)NCCCC[C@@H](C(=O)N[C@@H](Cc2c[nH]cn2)C(=O)N[C@H](C(=O)N[C@@H](CCC(N)=O)C(=O)N[C@@H](CCCNC(=N)N)C(=O)N[C@H](C(=O)N[C@@H](Cc2c[nH]c3ccccc23)C(=O)NCC(N)=O)C(C)C)C2CCCCC2)NC(=O)[C@H](CC(=O)O)NC(=O)[C@H](CC(C)C)NC(=O)[C@H]([C@@H](C)CC)NC1=O [compound 427] (HELM PEPTIDE1{[CCCCCCCCC(=O)[*:2]].W.[meA].Q.E.I.L.D.K.H.[O=C([C@@H](N[*:1])C1CCCCC1)[*:2]].Q.R.V.W.G.[am]}$PEPTIDE1,PEPTIDE1,5:R3-9:R3$$$V2.0)
–	< 0.4 µM	CCCCCCCCC(=O)N[C@@H](Cc1c[nH]c2ccccc12)C(=O)N(C)[C@@H](C)C(=O)N[C@@H](CCC(N)=O)C(=O)N[C@H]1CCCCNC(=O)C[C@@H](C(=O)N[C@@H](Cc2c[nH]cn2)C(=O)N[C@H](C(=O)N[C@@H](CCC(N)=O)C(=O)N[C@@H](CCCNC(=N)N)C(=O)N[C@H](C(=O)N[C@@H](Cc2c[nH]c3ccccc23)C(=O)NCC(N)=O)C(C)C)C2CCCCC2)NC(=O)[C@H](CC(=O)O)NC(=O)[C@H](CC(C)C)NC(=O)[C@H]([C@@H](C)CC)NC1=O [compound 431] (HELM PEPTIDE1{[CCCCCCCCC(=O)[*:2]].W.[meA].Q.K.I.L.D.D.H.[O=C([C@@H](N[*:1])C1CCCCC1)[*:2]].Q.R.V.W.G.[am]}$PEPTIDE1,PEPTIDE1,5:R3-9:R3$$$V2.0)
–	< 0.4 µM	CCCCCCCCCCCC(=O)N(C)[C@@H](C)C(=O)N[C@@H](CCC(N)=O)C(=O)N[C@H]1CCCCNC(=O)CC[C@@H](C(=O)N[C@@H](Cc2c[nH]cn2)C(=O)N[C@H](C(=O)N[C@@H](CCC(N)=O)C(=O)N[C@@H](CCCNC(=N)N)C(=O)N[C@H](C(=O)N[C@@H](Cc2c[nH]c3ccccc23)C(=O)NCC(N)=O)C(C)C)C2CCCCC2)NC(=O)[C@H](CC(N)=O)NC(=O)[C@H](CC(C)C)NC(=O)[C@H]([C@@H](C)CC)NC1=O [compound 434] (HELM PEPTIDE1{[CCCCCCCCCCCC(=O)[*:2]].[meA].Q.K.I.L.N.E.H.[O=C([C@@H](N[*:1])C1CCCCC1)[*:2]].Q.R.V.W.G.[am]}$PEPTIDE1,PEPTIDE1,4:R3-8:R3$$$V2.0)
